# Assays:
# [1] = Odour description (olfactory evaluation); details: odour note in words
# [2] = Odour threshold and odour value determination; details: definition per Huber, Seifen-Oele-Fette-Wachse 110 (1984) 448-451
# Experimental: Die Verbindungen der Formel I eignen sich aufgrund ihrer natürlichen Geruchsnoten insbesondere zur Modifizierung von bekannten Kompositionen. Hervorgehoben werden soll insbesondere ihre ausserordentliche Geruchsstärke: Der Geruchsschwellenwert beträgt 0,29 bzw. 0,57 ng/l, der Geruchswert 2983 bzw. 2139. Bezüglich Definition von Geruchswert und Geruchsschwellenwert siehe z.B. Ulrich A. Huber, Seifen - -Oele - Fette - Wachse 110, Nr. 15 (1984) 448-451.
Structure (SMILES),Geruch [1],Geruchsschwellenwert [2]
"CCc1cc2c(cc1[N+](=O)[O-])C(C)(C)CCC2(C)C [Beispiel 1, 6-Nitro-7-äthyl-1,1,4,4-tetramethyl-1,2,3,4-tetrahydronaphthalin]","Moschus-artig, süss, pudrig","0,57 ng/l"
"CCc1cc2c(cc1[N+](=O)[O-])C(C)(C)C(C)C2(C)C (stereo not shown) [Beispiel 2, 5-Nitro-6-äthyl-1,1,2,3,3-pentamethylindan]",moschus-artig,"0,29 ng/l"

# Source: EP0294746A1, “Bicyclic nitro compounds” (L. GIVAUDAN & CIE Société Anonyme, priority 1987, dated 1988)
